From patent US20240009170A1, “INHIBITION OF GLYCOGEN SYNTHASE KINASE-3 (GSK-3)” (Brown University, priority 2020, published 2024)

Test system: NK-92
Experiment: Flow cytometric analysis of cell surface markers, NK-92
Assay type: cell-based, Human
Settings: 48 hours
Description: FIG. 12 is a set of bar graphs showing flow cytometric analyses of cell surface markers of tumor and immune cells treated with 9-ING-41 in vitro. FIG. 12(A) HCT-116, FIG. 12(B) HT-29, FIG. 12(C) TALL-104, and FIG. 12(D) NK-92 cells were treated with indicated concentrations of 9-ING-41 for forty-eight hours, stained for indicated cell surface marker expression, and analyzed with a BD LSRII. Statistical significance was determined using two-tailed unpaired T tests.
To further understand the differential 9-ING-41-mediated impacts on protein expression, the inventors treated tumor and immune cells in vitro with 9-ING-41, then performed a flow cytometric analysis for expression of cell surface markers. […] A similar trend occurred in HT-29 cells, although not statistically significant. […] FIG. 10(C). […] FIG. 10(D).

Structure (SMILES): Cn1cc(C2=C(c3coc4ccc(F)cc34)C(=O)NC2=O)c2cc3c(cc21)OCO3 [9-ING-41]
- TRAIL and LAG3 surface expression: increases
- checkpoint molecule NKG2A surface expression: statistically significant decreases
